Experiment: xn = mol fraction of the nth substance listed
Conditions: 101.3 kPa, Liquid; for viscosity: Capillary tube (Ostwald / Ubbelohde) method

CCC(O)CO (stereo not given) [1,2-butanediol] + O
Conditions | mass density, 298.15 K [kg/m3] | mass density, 308.15 K [kg/m3] | mass density, 318.15 K [kg/m3] | speed of sound, 298.15 K [m/s] | speed of sound, 308.15 K [m/s] | speed of sound, 318.15 K [m/s] | viscosity, 298.15 K [mPa·s] | viscosity, 308.15 K [mPa·s] | viscosity, 318.15 K [mPa·s]
x2 = 0.0471 | 999.56 | 992.15 | 984.63 | 1455.6 | 1426 | 1396.5 | 54.4 | 28.67 | 16.54
x2 = 0.1478 | 1001.36 | 993.92 | 986.4 | 1480.8 | 1443.9 | 1415 | 47.22 | 25.18 | 14.53
x2 = 0.2481 | 1003.09 | 995.73 | 988.13 | 1497.6 | 1452.8 | 1422.4 | 39.78 | 21.61 | 12.47
x2 = 0.3491 | 1005.12 | 997.81 | 990.15 | 1517.2 | 1474 | 1441.3 | 32.56 | 18.1 | 10.46
x2 = 0.443 | 1007.55 | 1000.17 | 992.53 | 1545.9 | 1496.6 | 1462.7 | 26.42 | 15.04 | 8.706
x2 = 0.4971 | 1009.14 | 1001.68 | 994.08 | 1564.2 | 1508.1 | – | 23.17 | 13.39 | 7.758
x2 = 0.5552 | 1010.88 | 1003.37 | – | 1581.1 | 1519.5 | – | 19.92 | 11.69 | 6.789
x2 = 0.6494 | 1013.49 | 1006.11 | – | 1600.3 | 1542.9 | – | 15.11 | 9.091 | 5.314
x2 = 0.7491 | 1015.73 | 1008.77 | – | 1622.2 | 1585.6 | – | 10.48 | 6.504 | 3.848
x2 = 0.8547 | 1016.98 | 1010.49 | – | 1666.2 | 1640.7 | – | 5.959 | 3.9 | 2.378
x2 = 0.9081 | 1015.65 | 1009.43 | – | 1670.6 | 1647.5 | – | 3.869 | 2.651 | 1.675
x2 = 0.9144 | 1015.26 | 1009.1 | – | 1667.8 | 1645.9 | – | 3.635 | 2.509 | 1.595
x2 = 0.9255 | 1014.39 | 1008.36 | – | 1660.6 | 1641.4 | – | 3.232 | 2.26 | 1.455
x2 = 0.9353 | 1013.39 | 1007.51 | – | 1651 | 1635.3 | – | 2.885 | 2.044 | 1.334
x2 = 0.9543 | 1010.65 | 1005.2 | – | 1623.1 | 1617.1 | – | 2.241 | 1.635 | 1.105
x2 = 0.9562 | 1010.3 | 1004.91 | – | 1619.5 | 1614.7 | – | 2.179 | 1.594 | 1.083
x2 = 0.9598 | 1009.61 | 1004.33 | – | 1612.5 | 1610 | – | 2.063 | 1.519 | 1.041
x2 = 0.97 | 1007.33 | 1002.44 | – | 1589.6 | 1594.4 | – | 1.743 | 1.308 | 0.923
x2 = 0.9806 | 1004.38 | 1000 | – | 1561 | 1574.5 | – | 1.425 | 1.094 | 0.804
x2 = 0.9902 | 1001.1 | 997.32 | – | 1531.6 | 1552.8 | – | 1.152 | 0.906 | 0.699
x2 = 0.9923 | 1000.29 | 996.67 | – | 1524.8 | 1547.5 | – | 1.095 | 0.865 | 0.677
x2 = 0.9956 | 998.96 | 995.58 | – | 1513.5 | 1538.9 | – | 1.006 | 0.802 | 0.642

From the NIST ThermoML archive (doi:10.1021/je0340755)
